# Experimental data reported in article PMC4100783 (Biochemistry, 2014).
# Several values for one entry are separate records, joined by “and”; a condition that tells them apart may be missing. Identical values can stand only once.
# Assays:
# [1] = system: mftR; conditions: cited from earlier work
# [2] = target: mftR; assay type: binding, Burkholderia thailandensis; conditions: read-out: K
# [3] = system: MftR-mftpO complex; assay type: biochemical, Burkholderia thailandensis
# [4] = system: MftR-mftrO complex; assay type: biochemical, Burkholderia thailandensis
# [5] = system: mftR; assay type: binding, Burkholderia thailandensis
# [6] = system: MftR D56S; assay type: binding, Burkholderia thailandensis
# [7] = system: MftR W11F; assay type: binding, Burkholderia thailandensis
# [8] = target: T1, MftR WT (Burkholderia thailandensis E264, UniProt Q2SVY7 1-164); assay: EMSA
# T1 sequence: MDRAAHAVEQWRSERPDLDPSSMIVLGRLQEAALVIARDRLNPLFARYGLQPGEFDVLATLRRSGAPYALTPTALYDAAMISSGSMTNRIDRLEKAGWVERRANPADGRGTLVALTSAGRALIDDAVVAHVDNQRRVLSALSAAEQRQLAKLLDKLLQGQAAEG
molecule,measurement,setting,value
O=c1[nH]cnc2nc[nH]c12 [hypoxanthine],effect on DNA binding by MftR,[1],"inhibit DNA binding, albeit less efficiently than urate"
O=c1[nH]c(=O)c2nc[nH]c2[nH]1 [xanthine],effect on DNA binding by MftR,[1],"inhibit DNA binding, albeit less efficiently than urate"
O=c1[nH]c(=O)c2[nH]c(=O)[nH]c2[nH]1 [urate],Kd,[2],6.1 ± 2.1 µM
same,IC50,[3],2200 µM
same,IC50,[4],3700 ± 300 µM
same,Tm of MftR,[5],61.3 ± 1.0 °C
same,Tm of MftR D1,[5],49.2 ± 0.2 °C
same,Tm of MftR D2,[5],58.0 ± 0.1 °C
same,Tm of D56S,[6],52.3 ± 0.3 °C and 51.3 ± 0.1 °C
same,Tm of W11F,[7],27.0 ± 0.1 °C and 28.8 ± 0.7 °C
same,increase of Tm compared to protein alone,[7],~4 °C
mftpO (dsDNA) DNA 1: TGTCGAATCTATCTTGATGTCGAGACAATTATACGC DNA 2: GCGTATAATTGTCTCGACATCAAGATAGATTCGACA,Kd,[8],0.0006 ± 0.0001 µM
mftrO (dsDNA) DNA 1: CGTCCAAGTTATCTTGACGTAGAGACATGTCGAATC DNA 2: GATTCGACATGTCTCTACGTCAAGATAACTTGGACG,Kd,[8],0.0007 ± 0.0001 µM
